Measured values reported in patent publication US20250275959A1, “COMPOUNDS AND METHODS OF THEIR USE” (LEXICON PHARMACEUTICALS, INC., priority 2024, published 2025).

Tests used:
[1] = molecular target: T1, hACSL5 (Homo sapiens (Human), UniProt Q9ULC5); assay: Cell-based assay (CBA) with B12FA in hACSL5-transfected Expi293F / FlpIn TRex293 cells; conditions: hACSL5-expressing cells
Procedure, shortened: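 hACSL5-expressing Expi293F or tetracycline-induced FlpIn TRex293 cells, serum- and glucose-starved 1 h, then treated 3 h with serially diluted compound plus 20 µM B12FA. After fixation, 630/520 nm emission ratio (ex 485 nm) gave % inhibition versus no-inhibitor and 10 µM compound/non-induced controls; IC50 by Hill fit.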
Target sequence in this assay (Q9ULC5 whole entry): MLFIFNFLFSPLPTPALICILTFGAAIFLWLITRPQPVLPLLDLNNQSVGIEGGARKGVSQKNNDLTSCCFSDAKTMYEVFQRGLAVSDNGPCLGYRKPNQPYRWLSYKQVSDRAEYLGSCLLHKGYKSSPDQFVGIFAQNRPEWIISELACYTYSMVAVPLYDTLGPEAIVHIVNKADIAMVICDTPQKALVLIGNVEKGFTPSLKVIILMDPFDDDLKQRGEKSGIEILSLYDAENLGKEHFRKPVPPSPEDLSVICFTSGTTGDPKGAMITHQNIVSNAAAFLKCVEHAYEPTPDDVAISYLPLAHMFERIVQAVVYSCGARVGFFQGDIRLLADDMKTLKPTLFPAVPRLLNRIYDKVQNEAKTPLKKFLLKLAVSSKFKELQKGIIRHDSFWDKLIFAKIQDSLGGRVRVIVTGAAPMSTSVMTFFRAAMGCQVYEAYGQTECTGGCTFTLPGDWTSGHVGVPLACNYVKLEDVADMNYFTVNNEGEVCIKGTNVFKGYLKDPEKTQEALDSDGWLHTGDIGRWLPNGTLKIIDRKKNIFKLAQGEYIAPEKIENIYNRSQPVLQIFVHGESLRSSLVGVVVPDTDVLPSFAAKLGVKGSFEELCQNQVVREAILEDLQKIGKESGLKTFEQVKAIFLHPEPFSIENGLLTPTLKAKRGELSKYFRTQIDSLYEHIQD

[2] = molecular target: T1, hACSL5; assay: Human ACSL5 coupled enzyme Amplex Red assay; format: biochemical; conditions: read-out: hACSL5 IC50
Procedure, shortened: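 C-terminally His-tagged ACSL5 (33-683) from sf9 cells, 20 nM, was preincubated with compound in MOPS-NaOH pH 7.6 with MgCl2, peroxidase and acyl-CoA oxidase. Reactions were started with 25 μM oleate, 30 μM CoA, 1 mM ATP and 50 μM Amplex Red; fluorescence (535/590 nm) after 10 minutes at 25° C. was fitted to the Hill equation for IC50 and maximal inhibition.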
Target sequence in this assay (Q9ULC5 33-683): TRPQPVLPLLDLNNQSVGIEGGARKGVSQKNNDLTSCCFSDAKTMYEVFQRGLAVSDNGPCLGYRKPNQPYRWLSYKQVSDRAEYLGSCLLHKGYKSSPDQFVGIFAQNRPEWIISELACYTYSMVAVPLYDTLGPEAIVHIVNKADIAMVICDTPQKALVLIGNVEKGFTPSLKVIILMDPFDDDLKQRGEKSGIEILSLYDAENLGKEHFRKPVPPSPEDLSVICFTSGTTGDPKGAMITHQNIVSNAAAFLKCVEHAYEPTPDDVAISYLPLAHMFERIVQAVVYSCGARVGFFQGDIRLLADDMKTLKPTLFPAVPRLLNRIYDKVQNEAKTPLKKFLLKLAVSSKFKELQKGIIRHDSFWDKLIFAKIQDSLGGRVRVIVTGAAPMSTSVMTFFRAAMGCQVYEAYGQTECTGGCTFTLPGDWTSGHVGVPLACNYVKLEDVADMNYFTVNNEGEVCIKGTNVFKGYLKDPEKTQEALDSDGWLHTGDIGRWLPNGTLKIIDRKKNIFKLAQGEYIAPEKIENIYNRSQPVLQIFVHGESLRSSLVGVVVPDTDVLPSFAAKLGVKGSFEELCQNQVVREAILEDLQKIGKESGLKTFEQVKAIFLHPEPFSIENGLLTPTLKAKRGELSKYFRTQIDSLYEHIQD

CC[C@@H](Oc1ccc(C(=O)NS(=O)(=O)c2ccc(OC3CCN(C(C)C)CC3)cc2)c(F)c1F)c1ccc(OCC2CC2)cn1 [(R)-4-(1-(5-(cyclopropylmethoxy)pyridin-2-yl)propoxy)-2,3-difluoro-N-((4-((1-isopropylpiperidin-4-yl)oxy)phenyl)sulfonyl)benzamide]
IC50 [1]: 100 to 500 nM | IC50 [2]: < 100 nM

CC[C@@H](Oc1ccc(C(=O)NS(=O)(=O)c2ccc(OC3CN(C)C3)cc2)c(F)c1F)c1ccc(OCC2CC2)cn1 [(R)-4-(1-(5-(cyclopropylmethoxy)pyridin-2-yl)propoxy)-2,3-difluoro-N-((4-((1-methylazetidin-3-yl)oxy)phenyl)sulfonyl)benzamide]
IC50 [1]: 100 to 500 nM | IC50 [2]: < 100 nM

CC[C@@H](Oc1ccc(C(=O)NS(=O)(=O)c2ccc(OC3CCN(C)CC3)cc2)c(F)c1F)c1ccc(OCC2CC2)cn1 [(R)-4-(1-(5-(cyclopropylmethoxy)pyridin-2-yl)propoxy)-2,3-difluoro-N-((4-((1-methylpiperidin-4-yl)oxy)phenyl)sulfonyl)benzamide]
IC50 [1]: < 100 nM | IC50 [2]: < 100 nM

CC[C@@H](Oc1ccc(C(=O)NS(=O)(=O)N2CCC(OC3CCN(C)CC3)CC2)c(F)c1F)c1ccc(OCC2CC2)cn1 [(R)-4-(1-(5-(cyclopropylmethoxy)pyridin-2-yl)propoxy)-2,3-difluoro-N-((4-((1-methylpiperidin-4-yl)oxy)piperidin-1-yl)sulfonyl)benzamide]
IC50 [1]: 100 to 500 nM | IC50 [2]: < 100 nM

CC[C@@H](Oc1ccc(C(=O)NS(=O)(=O)c2ccc(OC3CCNCC3)cc2)c(F)c1F)c1ccc(OCC2CC2)cn1 [(R)-4-(1-(5-(cyclopropylmethoxy)pyridin-2-yl)propoxy)-2,3-difluoro-N-((4-(piperidin-4-yloxy)phenyl)sulfonyl)benzamide]
IC50 [1]: > 500 nM | IC50 [2]: < 100 nM

CC[C@@H](Oc1ccc(C(=O)NS(=O)(=O)N2CCN(C(C)C)CC2)c(F)c1F)c1ccc(OCC2CC2)cn1 [(R)-4-(1-(5-(cyclopropylmethoxy)pyridin-2-yl)propoxy)-2,3-difluoro-N-((4-isopropylpiperazin-1-yl)sulfonyl)benzamide]
IC50 [1]: 100 to 500 nM | IC50 [2]: 100 to 500 nM

CC[C@@H](Oc1ccc(C(=O)NS(=O)(=O)N2CCCN(C)CC2)c(F)c1F)c1ccc(OCC2CC2)cn1 [(R)-4-(1-(5-(cyclopropylmethoxy)pyridin-2-yl)propoxy)-2,3-difluoro-N-((4-methyl-1,4-diazepan-1-yl)sulfonyl)benzamide]
IC50 [1]: 100 to 500 nM | IC50 [2]: 100 to 500 nM

CC[C@@H](Oc1ccc(C(=O)NS(=O)(=O)N2CCN(C)CC2)c(F)c1F)c1ccc(OCC2CC2)cn1 [(R)-4-(1-(5-(cyclopropylmethoxy)pyridin-2-yl)propoxy)-2,3-difluoro-N-((4-methylpiperazin-1-yl)sulfonyl)benzamide]
IC50 [1]: < 100 nM | IC50 [2]: < 100 nM

CC[C@@H](Oc1ccc(C(=O)NS(=O)(=O)c2ccc(NC3CCN(C)CC3)cn2)c(F)c1F)c1ccc(OCC2CC2)cn1 [(R)-4-(1-(5-(cyclopropylmethoxy)pyridin-2-yl)propoxy)-2,3-difluoro-N-((5-((1-methylpiperidin-4-yl)amino)pyridin-2-yl)sulfonyl)benzamide]
IC50 [1]: > 500 nM | IC50 [2]: < 100 nM

CC[C@@H](Oc1ccc(C(=O)NS(=O)(=O)c2ccc(OC3CCN(C)CC3)cn2)c(F)c1F)c1ccc(OCC2CC2)cn1 [(R)-4-(1-(5-(cyclopropylmethoxy)pyridin-2-yl)propoxy)-2,3-difluoro-N-((5-((1-methylpiperidin-4-yl)oxy)pyridin-2-yl)sulfonyl)benzamide]
IC50 [1]: > 500 nM | IC50 [2]: < 100 nM

CC[C@@H](Oc1ccc(C(=O)NS(=O)(=O)N2CC3(CC(OCCN4CCCC4)C3)C2)c(F)c1F)c1ccc(OCC2CC2)cn1 [(R)-4-(1-(5-(cyclopropylmethoxy)pyridin-2-yl)propoxy)-2,3-difluoro-N-((6-(2-(pyrrolidin-1-yl)ethoxy)-2-azaspiro[3.3]heptan-2-yl)sulfonyl)benzamide]
IC50 [1]: > 500 nM | IC50 [2]: < 100 nM

CC[C@@H](Oc1ccc(C(=O)NS(=O)(=O)c2ccc(OCCN3CCCC3)nn2)c(F)c1F)c1ccc(OCC2CC2)cn1 [(R)-4-(1-(5-(cyclopropylmethoxy)pyridin-2-yl)propoxy)-2,3-difluoro-N-((6-(2-(pyrrolidin-1-yl)ethoxy)pyridazin-3-yl)sulfonyl)benzamide]
IC50 [1]: > 500 nM | IC50 [2]: < 100 nM

CC[C@@H](Oc1ccc(C(=O)NS(=O)(=O)c2ccc(OCCN3CCCC3)nc2)c(F)c1F)c1ccc(OCC2CC2)cn1 [(R)-4-(1-(5-(cyclopropylmethoxy)pyridin-2-yl)propoxy)-2,3-difluoro-N-((6-(2-(pyrrolidin-1-yl)ethoxy)pyridin-3-yl)sulfonyl)benzamide]
IC50 [1]: 100 to 500 nM | IC50 [2]: < 100 nM

CC[C@@H](Oc1ccc(C(=O)NS(=O)(=O)c2ccc(NC3CCN(C(C)C)CC3)nc2)c(F)c1F)c1ccc(OCC2CC2)cn1 [(R)-4-(1-(5-(cyclopropylmethoxy)pyridin-2-yl)propoxy)-2,3-difluoro-N-((6-((1-isopropylpiperidin-4-yl)amino)pyridin-3-yl)sulfonyl)benzamide]
IC50 [1]: > 500 nM | IC50 [2]: < 100 nM

CC[C@@H](Oc1ccc(C(=O)NS(=O)(=O)c2ccc(OC3CCN(C(C)C)CC3)nc2)c(F)c1F)c1ccc(OCC2CC2)cn1 [(R)-4-(1-(5-(cyclopropylmethoxy)pyridin-2-yl)propoxy)-2,3-difluoro-N-((6-((1-isopropylpiperidin-4-yl)oxy)pyridin-3-yl)sulfonyl)benzamide]
IC50 [1]: 100 to 500 nM | IC50 [2]: < 100 nM

CC[C@@H](Oc1ccc(C(=O)NS(=O)(=O)c2ccc(NC3CCN(C)CC3)nc2)c(F)c1F)c1ccc(OCC2CC2)cn1 [(R)-4-(1-(5-(cyclopropylmethoxy)pyridin-2-yl)propoxy)-2,3-difluoro-N-((6-((1-methylpiperidin-4-yl)amino)pyridin-3-yl)sulfonyl)benzamide]
IC50 [1]: > 500 nM | IC50 [2]: < 100 nM

CC[C@@H](Oc1ccc(C(=O)NS(=O)(=O)N2CC3(CC(OC4CCN(C)CC4)C3)C2)c(F)c1F)c1ccc(OCC2CC2)cn1 [(R)-4-(1-(5-(cyclopropylmethoxy)pyridin-2-yl)propoxy)-2,3-difluoro-N-((6-((1-methylpiperidin-4-yl)oxy)-2-azaspiro[3.3]heptan-2-yl)sulfonyl)benzamide]
IC50 [1]: > 500 nM | IC50 [2]: 100 to 500 nM

CC[C@@H](Oc1ccc(C(=O)NS(=O)(=O)c2ccc(OC3CCN(C)CC3)nn2)c(F)c1F)c1ccc(OCC2CC2)cn1 [(R)-4-(1-(5-(cyclopropylmethoxy)pyridin-2-yl)propoxy)-2,3-difluoro-N-((6-((1-methylpiperidin-4-yl)oxy)pyridazin-3-yl)sulfonyl)benzamide]
IC50 [1]: > 500 nM | IC50 [2]: < 100 nM

CC[C@@H](Oc1ccc(C(=O)NS(=O)(=O)c2ccc(OC3CCN(C)CC3)nc2)c(F)c1F)c1ccc(OCC2CC2)cn1 [(R)-4-(1-(5-(cyclopropylmethoxy)pyridin-2-yl)propoxy)-2,3-difluoro-N-((6-((1-methylpiperidin-4-yl)oxy)pyridin-3-yl)sulfonyl)benzamide]
IC50 [1]: 100 to 500 nM | IC50 [2]: < 100 nM

CC[C@@H](Oc1ccc(C(=O)NS(=O)(=O)c2ccc(NCCN3CCCC3)nc2)c(F)c1F)c1ccc(OCC2CC2)cn1 [(R)-4-(1-(5-(cyclopropylmethoxy)pyridin-2-yl)propoxy)-2,3-difluoro-N-((6-((2-(pyrrolidin-1-yl)ethyl)amino)pyridin-3-yl)sulfonyl)benzamide]
IC50 [1]: > 500 nM | IC50 [2]: < 100 nM
